Experimental data taken from patent US20240293413A1, “COMPOUND AND METHOD FOR TREATING CHEMOTHERAPY-RELATED GASTROINTESTINAL SIDE EFFECTS” (ONQUALITY PHARMACEUTICALS CHINA LTD., priority 2021, published 2024).

Legend:
Type in all cases: in vivo
[1] = test system: diarrhea caused by the continuous administration of a chemotherapeutic agent in Balb/c mice; experiment: Examples 444-469 (Table 9): oral CDK inhibitor, diarrhea caused by continuous administration of a chemotherapeutic agent; details: CDK inhibitor oral 150 mg/kg once a day
Description: Balb/c mice were fed for 1 week, and then divided into groups. The experiment was divided into a control group, a chemotherapeutic agent group, and a CDK inhibitor group, each of which comprised 10 mice, to perform the administration experiment, for which the administration dosage, mode, time and frequency were shown in Table 9. The control group: being intragastrically administered with the same solvent as that used in the CDK inhibitor group (the time was shown in Table 9), and then being injected/intragastrically administered with the same solvent as that used in the chemotherapeutic agent group (the administration mode was shown in Table 9): the chemotherapeutic agent group: being intragastrically administered with the same solvent as that used in the CDK inhibitor group (the time was shown in Table 9), and then being injected/intragastrically administered with the chemotherapeutic agent (the type, administration mode, dosage and duration time were shown in Table 9): the CDK inhibitor group: being intragastrically administered with the CDK inhibitor (the time was shown in Table 9), and then being administered with the chemotherapeutic agent (the type, administration mode, dosage and duration time were shown in Table 9).
The scoring of diarrhea can refer to the method of Akinobu Kurita (Cancer Chemother Pharmacol 2000: 46:211-20.), Grade 0: normal feces: Grade 1: mild diarrhea, the stools is slightly wet and soft: Grade 2: moderate diarrhea, loose stools and mild perianal contamination: Grade 3: severe diarrhea, watery stools and accompanied by severe perianal staining (see FIG. 1). It is regarded as effective remission when the diarrhea grading of mice in the CDK inhibitor group is reduced compared with the average diarrhea grading of mice in the chemotherapeutic agent group.
The diarrhea grading of mice was observed and recorded every day. At the end of the experiment, the number of mice in the CDK inhibitor group whose diarrhea grading was lower than that of mice in the chemotherapeutic agent group was recorded. Table 9 lists various animal experiment combinations of chemotherapeutic agents and CDK inhibitors, as well as the corresponding experimental results. (Relative remission rate %=the number of mice in the CDK inhibitor group whose diarrhea has been effectively relieved/the total number of mice in the CDK inhibitor group*100%. The establishment rate of diarrhea model in the chemotherapeutic agent group was 50%-80%, that is, about 5-8 of 10 mice developed diarrhea during the experiment, and there were cases of individual mice death or not developing diarrhea.)

[2] = test system: constipation caused by a chemotherapeutic agent in Balb/c mice; experiment: Examples 406-443 (Table 8): various administration modes of the CDK inhibitor, relief of constipation caused by a chemotherapeutic agent;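 further: percent of treated mice relieved versus chemotherapy group by feces reduction rate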
Description: Balb/c mice were fed for 1 week, and then divided into groups. The experiment was divided into a control group, a chemotherapeutic agent group, CDK inhibitor groups (including an oral administration group of a CDK inhibitor, an intravenous injection group of a CDK inhibitor, an intraperitoneal injection group of a CDK inhibitor, an intramuscular injection group of a CDK inhibitor, a local administration group of a CDK inhibitor), each of which comprised 10 mice, to perform the administration experiment, for which the administration dosage, mode, time and frequency were shown in Table 8. The control group: being administered with the same solvent as that used in the CDK inhibitor group (the time and mode were shown in Table 8), and then being injected/intragastrically administered with the same solvent as that used in the chemotherapeutic agent group (the administration mode was shown in Table 8): the chemotherapeutic agent group: being administered with the same solvent as that used in the CDK inhibitor group (the time and mode were shown in Table 8), and then being injected/intragastrically administered with the chemotherapeutic agent (the type, administration mode and dosage were shown in Table 8): the oral administration group of the CDK inhibitor: being intragastrically administered with the CDK inhibitor (the time was shown in Table 8), and then being administered with the chemotherapeutic agent (the mode and dosage were shown in Table 8): the intravenous injection group of the CDK inhibitor: being injected with the CDK inhibitor through tail vein (the time was shown in Table 8), and then being administered with the chemotherapeutic agent (the mode and dosage were shown in Table 8): the intraperitoneal injection group of the CDK inhibitor: being intraperitoneally injected with the CDK inhibitor (the time was shown in Table 8), and then being administered with the chemotherapeutic agent (the mode and dosage were shown in Table 8): the intramuscular injection group of the CDK inhibitor: being intramuscularly injected with the CDK inhibitor (the time was shown in Table 8), and then being administered with the chemotherapeutic agent (the mode and dosage were shown in Table 8); and the local administration group of the CDK inhibitor: the hair on the abdomen of mice was shaved (about 2 cm*2 cm), being applied with the CDK inhibitor (the time was shown in Table 8), and then being administered with the chemotherapeutic agent (the mode and dosage were shown in Table 8).
Feces reduction rate (%)=(the control group−the chemotherapeutic agent group or the CDK inhibitor group)/the control group*100%
The feces amount of mice within 3 hours was observed and recorded every day.

[3] = test system: diarrhea caused by a chemotherapeutic agent in Balb/c mice; experiment: Examples 230-271 (Table 4): oral CDK inhibitor, relief of diarrhea caused by a chemotherapeutic agent
Description: Balb/c mice were fed for 1 week, and then divided into groups. The experiment was divided into a control group, a chemotherapeutic agent group, and a CDK inhibitor group, each of which comprised 10 mice, to perform the administration experiment, for which the administration dosage, mode, time and frequency were shown in Table 4. The control group: being intragastrically administered with the same solvent as that used in the CDK inhibitor group (the time was shown in Table 4), and then being injected/intragastrically administered with the same solvent as that used in the chemotherapeutic agent group (the administration mode was shown in Table 4): the chemotherapeutic agent group: being intragastrically administered with the same solvent as that used in the CDK inhibitor group (the time was shown in Table 4), and then being injected/intragastrically administered with the chemotherapeutic agent (the type, administration mode and dosage were shown in Table 4): the CDK inhibitor group: being intragastrically administered with the CDK inhibitor (the time was shown in Table 4), and then being administered with the chemotherapeutic agent (the mode and dosage were shown in Table 4).
The diarrhea grading of mice was observed and recorded every day.

Q: Which results are given for `CC(=O)c1c(C)c2cnc(Nc3ccc(N4CCNCC4)cn3)nc2n(C2CCCC2)c1=O` [Palbociclib]?
A: Relative remission rate ([1]; Examples 444-447 (one value printed; 4 h, 6 h, 8 h, 12 h before), Fluorouracil (5-Fu) intraperitoneal injection 70 mg/kg once a day, for 3 days, for 3 days, cycle 10 days): 70%; Relative remission rate ([1]; Examples 448-451 (one value printed; 4 h, 6 h, 8 h, 12 h before), Fluorouracil (5-Fu) intraperitoneal injection 70 mg/kg once a day, for 5 days, for 5 days, cycle 9 days): 60%; Relative remission rate ([1]; Examples 462-465 (one value given; 2 h, 4 h, 6 h, 8 h before), Capecitabine oral administration 1000 mg/kg (printed 100/0 wrapped) once a day, for 7 days, for 7 days, cycle 14 days): 0%; Relative remission rate ([1]; Examples 466-469 (one value given; 2 h, 4 h, 6 h, 8 h before), Capecitabine oral administration 1000 mg/kg (printed 100/0 wrapped) once a day, for 14 days, for 14 days, cycle 14 days): 10%; Relative remission rate of other administration mode ([2]; Example 406, Doxorubicin (Dox) intraperitoneal injection 12 mg/kg single, CDK inhibitor intravenous injection 150 mg/kg single, 0.5 h before, cycle 8 days): 10%; Relative remission rate of oral administration ([2]; Example 406, Doxorubicin (Dox) intraperitoneal injection 12 mg/kg single, CDK inhibitor oral 150 mg/kg single, 0.5 h before, cycle 8 days): 20%; Relative remission rate of other administration mode ([2]; Example 407, Doxorubicin (Dox) intraperitoneal injection 12 mg/kg single, CDK inhibitor intravenous injection 150 mg/kg single, 4 h before, cycle 8 days): 10%; Relative remission rate of oral administration ([2]; Example 407, Doxorubicin (Dox) intraperitoneal injection 12 mg/kg single, CDK inhibitor oral 150 mg/kg single, 4 h before, cycle 8 days): 30%; Relative remission rate of other administration mode ([2]; Example 408, Doxorubicin (Dox) intraperitoneal injection 12 mg/kg single, CDK inhibitor intravenous injection 150 mg/kg single, 8 h before, cycle 8 days): 10%; Relative remission rate of oral administration ([2]; Example 408, Doxorubicin (Dox) intraperitoneal injection 12 mg/kg single, CDK inhibitor oral 150 mg/kg single, 8 h before, cycle 8 days): 30%; Relative remission rate of other administration mode ([2]; Example 409, Doxorubicin (Dox) intraperitoneal injection 12 mg/kg single, CDK inhibitor intravenous injection 150 mg/kg single, 12 h before, cycle 8 days): 20%; Relative remission rate of oral administration ([2]; Example 409, Doxorubicin (Dox) intraperitoneal injection 12 mg/kg single, CDK inhibitor oral 150 mg/kg single, 12 h before, cycle 8 days): 50%; Relative remission rate of other administration mode ([2]; Example 410, Doxorubicin (Dox) intraperitoneal injection 12 mg/kg single, CDK inhibitor intravenous injection 150 mg/kg single, 24 h before, cycle 8 days): 20%; Relative remission rate of oral administration ([2]; Example 410, Doxorubicin (Dox) intraperitoneal injection 12 mg/kg single, CDK inhibitor oral 150 mg/kg single, 24 h before, cycle 8 days): 40%; Relative remission rate of other administration mode ([2]; Example 415, Etoposide (Etop1) intraperitoneal injection 100 mg/kg single, CDK inhibitor intravenous injection 150 mg/kg single, 0.5 h before, cycle 8 days): 10%; Relative remission rate of oral administration ([2]; Example 415, Etoposide (Etop1) intraperitoneal injection 100 mg/kg single, CDK inhibitor oral 150 mg/kg single, 0.5 h before, cycle 8 days): 20%; Relative remission rate of other administration mode ([2]; Example 416, Etoposide (Etop1) intraperitoneal injection 100 mg/kg single, CDK inhibitor intravenous injection 150 mg/kg single, 4 h before, cycle 8 days): 20%; Relative remission rate of oral administration ([2]; Example 416, Etoposide (Etop1) intraperitoneal injection 100 mg/kg single, CDK inhibitor oral 150 mg/kg single, 4 h before, cycle 8 days): 40%; Relative remission rate of other administration mode ([2]; Example 417, Etoposide (Etop1) intraperitoneal injection 100 mg/kg single, CDK inhibitor intravenous injection 150 mg/kg single, 8 h before, cycle 8 days): 20%; Relative remission rate of oral administration ([2]; Example 417, Etoposide (Etop1) intraperitoneal injection 100 mg/kg single, CDK inhibitor oral 150 mg/kg single, 8 h before, cycle 8 days): 40%; Relative remission rate of other administration mode ([2]; Example 418, Etoposide (Etop1) intraperitoneal injection 100 mg/kg single, CDK inhibitor intravenous injection 150 mg/kg single, 12 h before, cycle 8 days): 10%; Relative remission rate of oral administration ([2]; Example 418, Etoposide (Etop1) intraperitoneal injection 100 mg/kg single, CDK inhibitor oral 150 mg/kg single, 12 h before, cycle 8 days): 30%; Relative remission rate of other administration mode ([2]; Example 419, Etoposide (Etop1) intraperitoneal injection 100 mg/kg single, CDK inhibitor intravenous injection 150 mg/kg single, 24 h before, cycle 8 days): 10%; Relative remission rate of oral administration ([2]; Example 419, Etoposide (Etop1) intraperitoneal injection 100 mg/kg single, CDK inhibitor oral 150 mg/kg single, 24 h before, cycle 8 days): 30%; Relative remission rate of other administration mode ([2]; Example 422, Etoposide and cisplatin intravenous injection 50 and 5 mg/kg single, CDK inhibitor intravenous injection 150 mg/kg single, 0.5 h before, cycle 7 days): 10%; Relative remission rate of oral administration ([2]; Example 422, Etoposide and cisplatin intravenous injection 50 and 5 mg/kg single, CDK inhibitor oral 150 mg/kg single, 0.5 h before, cycle 7 days): 40%; Relative remission rate of other administration mode ([2]; Example 423, Etoposide and cisplatin intravenous injection 50 and 5 mg/kg single, CDK inhibitor intravenous injection 150 mg/kg single, 24 h before, cycle 7 days): 20%; Relative remission rate of oral administration ([2]; Example 423, Etoposide and cisplatin intravenous injection 50 and 5 mg/kg single, CDK inhibitor oral 150 mg/kg single, 24 h before, cycle 7 days): 60%; Relative remission rate of other administration mode ([2]; Example 437, Gemcitabine intravenous injection 120 mg/kg single, CDK inhibitor intravenous injection 200 mg/kg single, 12 h before, cycle 8 days): 20%; Relative remission rate of oral administration ([2]; Example 437, Gemcitabine intravenous injection 120 mg/kg single, CDK inhibitor oral 200 mg/kg single, 12 h before, cycle 8 days): 50%; Relative remission rate ([3]; Example 230, Doxorubicin (Dox) intraperitoneal injection 10 mg/kg single, CDK inhibitor oral 150 mg/kg single, 0.5 h before, cycle 12 days): 50%; Relative remission rate ([3]; Example 231, Doxorubicin (Dox) intraperitoneal injection 10 mg/kg single, CDK inhibitor oral 150 mg/kg single, 4 h before, cycle 12 days): 70%; Relative remission rate ([3]; Example 232, Doxorubicin (Dox) intraperitoneal injection 10 mg/kg single, CDK inhibitor oral 150 mg/kg single, 8 h before, cycle 12 days): 70%; Relative remission rate ([3]; Example 233, Doxorubicin (Dox) intraperitoneal injection 10 mg/kg single, CDK inhibitor oral 150 mg/kg single, 12 h before, cycle 12 days): 80%; Relative remission rate ([3]; Example 234, Doxorubicin (Dox) intraperitoneal injection 10 mg/kg single, CDK inhibitor oral 150 mg/kg single, 24 h before, cycle 12 days): 50%; Relative remission rate ([3]; Example 235, Doxorubicin (Dox) intraperitoneal injection 10 mg/kg single, CDK inhibitor oral 150 mg/kg single, 48 h before, cycle 12 days): 0%; Relative remission rate ([3]; Example 249, Methotrexate (MTX) oral administration 400 mg/kg single, CDK inhibitor oral 125 mg/kg single, 4 h before, cycle 7 days): 60%; Relative remission rate ([3]; Example 250, Methotrexate (MTX) oral administration 400 mg/kg single, CDK inhibitor oral 125 mg/kg single, 24 h before, cycle 7 days): 60%; Relative remission rate ([3]; Example 260, Cytarabine (Ara-C) intravenous injection 600 mg/kg single, CDK inhibitor oral 150 mg/kg single, 6 h before, cycle 8 days): 60%; Relative remission rate ([3]; Example 271, Vinorelbine (NVB) intraperitoneal injection 10 mg/kg single, CDK inhibitor oral 200 mg/kg single, 12 h before, cycle 7 days): 70%
